# Measurements as given in patent US7812025B2, “Brain/neuronal cell-protecting agent and therapeutic agent for sleep disorder” (Takeda Pharmaceutical Company Limited, priority 2005, dated 2010).
# Molecular target: T1, Human FAAH (Homo sapiens, UniProt O00519)
# T1 construct: made in house; 10000 g pellet suspended in M-PER
# T1 sequence (O00519 1-579): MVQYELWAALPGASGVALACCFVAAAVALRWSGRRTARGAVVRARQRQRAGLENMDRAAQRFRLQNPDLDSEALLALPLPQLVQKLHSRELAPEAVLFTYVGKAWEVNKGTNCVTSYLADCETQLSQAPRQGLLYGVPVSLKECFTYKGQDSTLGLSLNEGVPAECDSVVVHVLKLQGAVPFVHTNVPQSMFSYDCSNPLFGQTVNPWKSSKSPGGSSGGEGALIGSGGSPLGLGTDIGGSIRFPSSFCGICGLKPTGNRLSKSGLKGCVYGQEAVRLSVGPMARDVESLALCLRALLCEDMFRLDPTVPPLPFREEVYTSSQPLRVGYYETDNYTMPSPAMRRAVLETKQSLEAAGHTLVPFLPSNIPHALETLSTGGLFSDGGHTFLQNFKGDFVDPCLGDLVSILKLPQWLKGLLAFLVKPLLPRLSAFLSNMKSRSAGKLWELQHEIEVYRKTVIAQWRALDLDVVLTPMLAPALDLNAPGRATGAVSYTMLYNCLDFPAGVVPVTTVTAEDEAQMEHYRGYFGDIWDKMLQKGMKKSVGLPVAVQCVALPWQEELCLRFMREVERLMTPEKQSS
# Experiment: Measurement of FAAH inhibitory activity (enzyme fraction from CHO-K1/human FAAH, substrate anandamide [ethanolamine 1-3H])
# Type: biochemical
# Details: 1 μM test compound; 25 nM anandamide [ethanolamine 1-3H]; 60 ng enzyme fraction; 37° C. for 30 minutes; pH 9.0; read-out: Human FAAH Inhibition Rate at 1 μM (%)
# Procedure: Measurement of FAAH Inhibitory Activity
# (1) Preparation of Enzyme Fraction
# The FAAH gene was cloned by PCR. That is, a human brain library was used as a cDNA library, 5′-[…]-3′ [SEQ ID NO:1] and 5′-[…]-3′ [SEQ ID NO:2] were used as a primer set, and KOD DNA polymerase (Toyobo Co., Ltd.) was used as a DNA polymerase. One cycle of the reaction comprises 95° C. for 30 sec, 55° C. for 30 sec and 72° C. for 2 min, and 45 cycles of the reaction was carried out to obtain an amplified fragment. The amplified fragment was cleaved with restriction enzymes EcoRI and SalI, and then was inserted into a pMSRα vector which had been cleaved with the same restriction enzymes EcoRI and SalI to obtain a pMSRα-human FAAH. A cell line CHO-K1 and the above-obtained plasmid were subjected to a method known per se to prepare the cell line CHO-K1/human FAAH in which human FAAH was stably expressed. The CHO-K1/human FAAH was cultured in a CO2 incubator at 37° C., using a medium (Ham's F-12 medium supplemented with final concentration 10% of fetal bovine serum (FBS) and final concentration 800 μg/ml of G418), and then the cells were harvested. After washing with PBS, the cells were suspended in a buffer (10 mM Tris, 1 mM EDTA and 10 mM MgCl2, all at final concentrations) and disrupted with a Polytron homogenizer. After centrifugation at 900 g, the supernatant was recovered and further centrifuged at 10000 g. A pellet obtained therefrom was suspended in M-PER (Catalog No. 78501; PIERCE) to give an enzyme fraction.
# Using a white walled 96-well plate (Coster Corp.), the test compound at various concentrations, 60 ng of the enzyme fraction and the substrate anandamide [ethanolamine 1-^3H] (final concentration 25 nM) were reacted in 50 μl of a reaction buffer (125 mM Tris-HCl (pH 9.0), 1 mM EDTA, 0.4 mM HEPES, 0.2% glycerol and 0.02% Triton X-100, all at final concentrations) at 37° C. for 30 minutes. The reaction mixture was transferred to a 96-well MultiScreen-HA filter plate (Millipore Corp.) and then was left to stand overnight at room temperature in order to allow the unreacted substrate to be adsorbed on the filter. The plate was washed with PBS using a MultiScreen Vacuum Manifold (Millipore Corp.) and dried. To each well, 50 μl of liquid scintillation cocktail was added and stirred, and then counting was performed with a TopCount (Perkin-Elmer Corp.). The count of a sample containing a solvent instead of the test compound was taken as 0%, and the count at zero time was taken as 100%, to calculate the inhibitory activity of the compound.
row,inhibition at 1 µM [%],SMILES
1,102,"Cc1noc(NC(=O)N2CCN(c3ccc(-c4ccccc4)cc3)CC2)c1C [Example 15, 4-Biphenyl-4-yl-N-(3,4-dimethylisoxazol-5-yl)piperazine-1-carboxamide]"
2,98,"O=C(Nc1cccnc1)N1CCN(c2ccc(-c3ccccc3)cn2)CC1 [Example 8, 4-(5-Phenylpyridin-2-yl)-N-pyridin-3-ylpiperazine-1-carboxamide]"
3,105,"O=C(Nc1cccnn1)N1CCN(c2cccc(-c3ccccc3)c2)CC1 [Example 9, 4-Biphenyl-3-yl-N-pyridazin-3-ylpiperazine-1-carboxamide]"
4,103,"O=C(Nc1cccnc1)N1CCN(c2cccc(-c3ccccc3)c2)CC1 [Example 1, 4-Biphenyl-3-yl-N-pyridin-3-ylpiperazine-1-carboxamide]"
5,102,"Cc1noc(NC(=O)N2CCN(c3ccc(-c4ccccc4)cn3)CC2)c1C [Example 7, N-(3,4-Dimethylisoxazol-5-yl)-4-(5-phenylpyridin-2-yl)piperazine-1-carboxamide]"
6,91,"O=C(Nc1cccnn1)N1CCN(c2cc(-c3ccccc3)ccn2)CC1 [Example 6, 4-(4-Phenylpyridin-2-yl)-N-pyridazin-3-ylpiperazine-1-carboxamide]"
7,94,"Cc1noc(NC(=O)N2CCN(c3cc(-c4ccccc4)ccn3)CC2)c1C [Example 5, N-(3,4-Dimethylisoxazol-5-yl)-4-(4-phenylpyridin-2-yl)piperazine-1-carboxamide]"
8,104,"Cc1noc(NC(=O)N2CCN(c3cccc(-c4ccccc4)c3)CC2)c1C [Example 2, 4-Biphenyl-3-yl-N-(3,4-dimethylisoxazol-5-yl)piperazine-1-carboxamide]"
9,101,"O=C(Nc1cccnc1)N1CCN(c2ccc(-c3ccccc3)cc2)CC1 [Example 14, 4-Biphenyl-4-yl-N-pyridin-3-ylpiperazine-1-carboxamide]"
10,108,"CC(=O)Nc1ccc(NC(=O)N2CCN(c3cccc(-c4ccsc4)c3)CC2)cc1 [Example 10, N-[4-(Acetylamino)phenyl]-4-[3-(3-thienyl)phenyl]piperazine-1-carboxamide]"
11,74,"O=C(Nc1cccnc1)N1CCN(c2cc(-c3ccccc3)ccn2)CC1 [Example 4, 4-(4-Phenylpyridin-2-yl)-N-pyridin-3-ylpiperazine-1-carboxamide]"
12,104,"O=C(Nc1cccnc1)N1CCN(c2cccc(-c3ccsc3)c2)CC1 [Example 12, N-Pyridin-3-yl-4-[3-(3-thienyl)phenyl]piperazine-1-carboxamide]"
13,100,"Cc1noc(NC(=O)N2CCN(c3cccc(-c4ccsc4)c3)CC2)c1C [Example 11, N-(3,4-Dimethylisoxazol-5-yl)-4-[3-(3-thienyl)phenyl]piperazine-1-carboxamide]"
14,101,"CC(=O)Nc1ccc(NC(=O)N2CCN(c3cccc(-c4ccccc4)c3)CC2)cn1 [Example 3, N-[6-(Acetylamino)pyridin-3-yl]-4-biphenyl-3-ylpiperazine-1-carboxamide]"
15,104,"O=C(Nc1cccnc1)N1CCN(c2cccc(-c3ccoc3)c2)CC1 [Example 13, 4-[3-(3-Furyl)phenyl]-N-pyridin-3-ylpiperazine-1-carboxamide]"
